Holding throughout (type): in vivo
For one test, the system named is Setaria viridis. The test is described as follows: Post-emergence herbicidal activity against SETVI. To be noted: Setaria viridis, 504 h, dosage 320 g/ha, rated about 3 weeks after treatment. The gist of the method: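 Greenhouse weeds in sandy loam were sprayed at the one-leaf stage, 2–3 weeks after sowing, with WP or EC formulations plus 0.5% additive at 600 l/ha water. About 3 weeks later, damage was rated visually against untreated controls, where 100% means plants dead and 0% means like control.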

For the next test, the system named is Avena fatua. The test is described as follows: Post-emergence herbicidal activity against AVEFA. To be noted: Avena fatua, 504 h, dosage 320 g/ha, rated about 3 weeks after treatment. Put shortly: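 Greenhouse pots of sandy loam; plants sprayed at one-leaf stage, 2 to 3 weeks after sowing, with WP or EC formulations in water plus 0.5% additive at 600 l/ha. Activity rated visually after about 3 weeks against untreated controls (100% = plants dead, 0% = like control).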

The next test has as its system Polygonum convolvulus. In words: Pre-emergence herbicidal activity against POLCO. To be noted: Fallopia convolvulus, 504 h, dosage 80 g/ha. The source says:
1. Pre-Emergence Herbicidal Action and Crop Plant Compatibility Seeds of monocotyledonous and dicotyledonous weed plants and crop plants are placed in plastic or wood fiber pots and covered with soil. The compounds of the invention, formulated in the form of wettable powders (WP) or as emulsion concentrates (EC), are then applied onto the surface of the covering soil as aqueous suspension or emulsion with addition of 0.5% additive at a water application rate of 600 l/ha (converted). After the treatment, the pots are placed in a greenhouse and kept under good growth conditions for the trial plants. After about 3 weeks, the effect of the preparations is scored visually in comparison with untreated controls as percentages. For example, 100% activity=the plants have died, 0% activity=like control plants. POLCO: Polygonum convolvulus SETVI: Setaria viridis

Another test relates to Abutilon theophrasti. In words: Post-emergence herbicidal activity against ABUTH. To be noted: Abutilon theophrasti, 504 h, dosage 320 g/ha, rated about 3 weeks after treatment. As to the method:
(§1) ABUTH: Abutilon theophrasti ALOMY: Alopecurus myosuroides 2. Post-Emergence Herbicidal Action and Crop Plant Compatibility Seeds of monocotyledonous and dicotyledonous weeds and crop plants are placed in sandy loam in plastic or wood-fiber pots, covered with soil and cultivated in a greenhouse under controlled growth conditions. 2 to 3 weeks after sowing, the test plants are treated at the one-leaf stage. The compounds of the invention, formulated in the form of wettable powders (WP) or as emulsion concentrates (EC), are then sprayed onto the green parts of the plants as aqueous suspension or emulsion with addition of 0.5% additive at a water application rate of 600 l/ha (converted). After the test plants had been kept in the greenhouse under optimum growth conditions for about 3 weeks, the activity of the preparations is rated visually in comparison to untreated controls. For example, 100% activity=the plants have died, 0% activity=like control plants.

For a further test, the system named is Lolium rigidum. In words: Post-emergence herbicidal activity against LOLRI. To be noted: Lolium rigidum, 504 h, dosage 320 g/ha, rated about 3 weeks after treatment. How it is done: as §1, with “LOLRI: Lolium rigidum PHBPU: Pharbitis purpurea” for “ABUTH: Abutilon theophrasti ALOMY: Alopecurus myosuroides”
The next test relates to Viola tricolor. The test is described as follows: Post-emergence herbicidal activity against VIOTR. To be noted: Viola tricolor, 504 h, dosage 320 g/ha, rated about 3 weeks after treatment. As to the method:
as §1, with “VIOTR: Viola tricolor” for “ABUTH: Abutilon theophrasti ALOMY: Alopecurus myosuroides”

We go through 13 molecules from US11597724B2, “Herbicidally active 3-phenylisoxazoline-5-carboxamides of tetrahydro and dihydrofuran carboxylic acids and esters” (Bayer Aktiengesellschaft, priority 2017, dated 2023).

A word on the pest or weed control: it is the degree to which the test organism was suppressed or injured, in per cent. For the molecule `COC(=O)[C@H]1C[C@@H](NC(=O)C2(OC)CC(c3cc(F)cc(F)c3)=NO2)CO1` (relative stereo) [I-05, methyl cis-4-[[3-(3,5-difluorophenyl)-5-methoxy-4H-isoxazole-5-carbonyl]amino]tetrahydrofuran-2-carboxylate], the pest or weed control at 320 g/ha amounted to 90% in the test with Setaria viridis and 100% in the test on Avena fatua. The molecule further displayed a pest or weed control at 80 g/ha in the test with Polygonum convolvulus of 80%.
As for `COC(=O)[C@@]1(OC)C[C@@H](NC(=O)C2(C)CC(c3cccc(F)c3)=NO2)CO1` (stereo partly drawn) [I-47, methyl (2R,4R)-4-[[3-(3-fluorophenyl)-5-methyl-4H-isoxazole-5-carbonyl]amino]-2-methoxytetrahydrofuran-2-carboxylate], the pest or weed control at 320 g/ha in the test on Setaria viridis came out at 80%; in the test on Abutilon theophrasti it was 80%; in the test on Avena fatua it was 100%; with Lolium rigidum, 100%; with Viola tricolor it was 80%. This molecule displayed a pest or weed control at 80 g/ha in the test on Polygonum convolvulus of 90%.
For the molecule `C=C[C@]1(C(=O)N[C@@H]2CO[C@@H](C(=O)OC)C2)CC(c2cc(F)cc(F)c2)=NO1` (mixture of isomers) [I-56, methyl trans-4-[[(5S)-3-(3,5-difluorophenyl)-5-vinyl-4H-isoxazole-5-carbonyl]amino]tetrahydrofuran-2-carboxylate], the pest or weed control at 320 g/ha with Setaria viridis turned out to be 90%; in the test with Abutilon theophrasti, 90%; with Avena fatua, 100%; with Lolium rigidum it was 90%; with Viola tricolor it was 90%.
On to `CC(C)(C)OC(=O)[C@H]1C[C@@H](NC(=O)C2(C)CC(c3cccc(F)c3)=NO2)CO1` (mixture of isomers) [I-33, tert-butyl cis-4-[[(5RS)-3-(3-fluorophenyl)-5-methyl-4H-isoxazole-5-carbonyl]amino]tetrahydrofuran-2-carboxylate], for which the values for the pest or weed control at 320 g/ha in the test with Setaria viridis, in the test with Avena fatua and in the test with Lolium rigidum were 90%, 100% and 100%, respectively. The molecule further registered a pest or weed control at 80 g/ha with Polygonum convolvulus of 90%.
As for `COC(=O)C1COCC1NC(=O)C1(C)CC(c2cc(F)cc(F)c2)=NO1` (stereo not shown) [I-19, methyl 4-[[3-(3,5-difluorophenyl)-5-methyl-4H-isoxazole-5-carbonyl]amino]tetrahydrofuran-3-carboxylate], the pest or weed control at 320 g/ha in the test with Setaria viridis amounted to 80%; in the test on Abutilon theophrasti it was 80%; with Avena fatua, 100%; in the test on Viola tricolor, 80%. Besides, the pest or weed control at 80 g/ha with Polygonum convolvulus is 90%.
`CC1(C(=O)N[C@H]2CO[C@@H](C(=O)OCc3ccccc3)C2)CC(c2cccc(F)c2)=NO1` (mixture of isomers) [I-34, benzyl cis-4-[[(5RS)-3-(3-fluorophenyl)-5-methyl-4H-isoxazole-5-carbonyl]amino]tetrahydrofuran-2-carboxylate]: the pest or weed control at 320 g/ha is 90% with Setaria viridis, 80% in the test on Abutilon theophrasti, 100% in the test with Avena fatua and 90% in the test on Lolium rigidum. Also, the pest or weed control at 80 g/ha in the test on Polygonum convolvulus was determined as 90%.
For the molecule `COC(=O)[C@H]1C[C@@H](NC(=O)C2(C(F)(F)F)CC(c3cc(F)cc(F)c3)=NO2)CO1` (relative stereo) [I-06, methyl cis-4-[[3-(3,5-difluorophenyl)-5-(trifluoromethyl)-4H-isoxazole-5-carbonyl]amino]tetrahydrofuran-2-carboxylate], the pest or weed control at 320 g/ha was 80% in the test with Setaria viridis, 90% with Avena fatua and 90% with Viola tricolor. The molecule further had a pest or weed control at 80 g/ha in the test on Polygonum convolvulus of 100%.
Take `COC(=O)[C@H]1C[C@H](NC(=O)[C@@]2(C)CC(c3cc(F)cc(F)c3)=NO2)CO1` (mixture of isomers) [I-55, methyl trans-4-[[(5R)-3-(3,5-difluorophenyl)-5-methyl-4H-isoxazole-5-carbonyl]amino]tetrahydrofuran-2-carboxylate]: the pest or weed control at 320 g/ha in the test on Setaria viridis, with Abutilon theophrasti, in the test on Avena fatua, in the test with Lolium rigidum and in the test with Viola tricolor was 90% in each case.
Regarding `COC(=O)[C@H]1C[C@@H](NC(=O)C2(OC)CC(c3ccccc3)=NO2)CO1` (relative stereo) [I-14, methyl cis-4-[(5-methoxy-3-phenyl-4H-isoxazole-5-carbonyl)amino]tetrahydrofuran-2-carboxylate], the pest or weed control at 320 g/ha with Setaria viridis was found to be 80%; in the test on Avena fatua, 100%.
Take `COC(=O)[C@H]1C[C@@H](NC(=O)C2(OC)CC(c3cc(C)cc(Br)c3)=NO2)CO1` (relative stereo) [I-08, methyl cis-4-[[3-(3-bromo-5-methylphenyl)-5-methoxy-4H-isoxazole-5-carbonyl]amino]tetrahydrofuran-2-carboxylate]: the values for the pest or weed control at 320 g/ha in the test with Setaria viridis, in the test on Avena fatua and in the test on Viola tricolor were 80%, 100% and 80%, respectively. In the test with Polygonum convolvulus, this molecule gave a pest or weed control at 80 g/ha of 80%.
As to `COC(=O)C1=C[C@H](NC(=O)C2(C)CC(c3cccc(F)c3)=NO2)CO1` (stereo partly drawn) [I-39, methyl (3S)-3-[[3-(3-fluorophenyl)-5-methyl-4H-isoxazole-5-carbonyl]amino]-2,3-dihydrofuran-5-carboxylate], the pest or weed control at 320 g/ha was found to be 90% in the test with Setaria viridis; 80% in the test with Abutilon theophrasti; 100% in the test on Avena fatua; 100% with Lolium rigidum; 80% in the test on Viola tricolor. In the test with Polygonum convolvulus, this molecule gave a pest or weed control at 80 g/ha of 80%.
Take `COC(=O)[C@H]1C[C@@H](NC(=O)C2(C)CC(c3cc(F)cc(F)c3)=NO2)CO1` (relative stereo) [I-01, methyl cis-4-[[3-(3,5-difluorophenyl)-5-methyl-4H-isoxazole-5-carbonyl]amino]tetrahydrofuran-2-carboxylate]: the pest or weed control at 320 g/ha turned out to be 90% in the test with Setaria viridis, 80% with Abutilon theophrasti, 100% with Avena fatua and 90% with Viola tricolor. The molecule further showed a pest or weed control at 80 g/ha with Polygonum convolvulus of 80%.
On to `COC(=O)[C@H]1C[C@@H](NC(=O)C2(C)CC(c3cc(C)cc(Br)c3)=NO2)CO1` (relative stereo) [I-04, methyl cis-4-[[3-(3-bromo-5-methylphenyl)-5-methyl-4H-isoxazole-5-carbonyl]amino]tetrahydrofuran-2-carboxylate], for which the values for the pest or weed control at 320 g/ha in the test on Setaria viridis, in the test with Avena fatua and with Viola tricolor were 80%, 100% and 80%, respectively. The molecule further showed a pest or weed control at 80 g/ha in the test on Polygonum convolvulus of 90%.
